Results reported in patent US11384063B2, “Modulators of estrogen receptor proteolysis and associated methods of use” (Arvinas Operations, Inc., priority 2017, dated 2022).

Columns and labels:
ERα [1] = biological target: T1, ERα (Homo sapiens, UniProt P03372); assay: Estrogen receptor-alpha (ERα) degradation assay in MCF-7 cells using western blot; type: cell-based; design: assessed for their activity in degrading ERα in MCF-7 cells via western blot; endogenous in cells; host or cells: MCF7 cells; details: ER-alpha degradation, MCF7 cells, 3 days of incubation
T1 sequence (P03372 1-595): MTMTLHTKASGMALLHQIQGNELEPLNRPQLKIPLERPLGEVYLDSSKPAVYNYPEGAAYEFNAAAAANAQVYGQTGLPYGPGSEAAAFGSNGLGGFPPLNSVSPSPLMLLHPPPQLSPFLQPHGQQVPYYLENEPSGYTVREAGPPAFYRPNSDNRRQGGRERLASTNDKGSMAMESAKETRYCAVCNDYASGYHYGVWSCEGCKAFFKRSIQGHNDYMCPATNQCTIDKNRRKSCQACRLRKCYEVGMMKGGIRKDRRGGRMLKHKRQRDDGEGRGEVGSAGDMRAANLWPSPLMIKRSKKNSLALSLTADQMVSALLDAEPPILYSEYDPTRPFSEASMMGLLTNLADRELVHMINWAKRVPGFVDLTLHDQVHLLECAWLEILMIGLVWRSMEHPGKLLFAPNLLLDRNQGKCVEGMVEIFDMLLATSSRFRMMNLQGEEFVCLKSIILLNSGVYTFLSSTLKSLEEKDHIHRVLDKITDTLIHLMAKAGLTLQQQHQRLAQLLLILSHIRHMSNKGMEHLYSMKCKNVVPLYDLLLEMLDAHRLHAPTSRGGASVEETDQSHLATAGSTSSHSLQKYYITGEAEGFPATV
Procedure: Compounds prepared in this application were also analyzed for the degradation of ERα in MCF7 and T47D cells.
Estrogen Receptor-Alpha (ERα) Degradation Assay in MCF-7 Cells Using Western Blot Method for Table 4.
The exemplary novel ERα degraders were assessed for their activity in degrading ERα in MCF-7 cells via western blot. The assay was carried out in the presence of 10% fetal bovine serum (FBS) or high percentage of human or mouse serum.
MCF7 cells were grown in DMEM/F12 with 10% fetal bovine serum and seeded at 24,000 cells per well in 100 μl into 96-well clear tissue culture plates. The following day, the cells were treated with PROTACs in a […] concentration curve with 100 nM being the top concentration and serial dilutions to make the other concentrations (30 nM, 10 nM, 3 nM, 1 nM, and 0.3 nM). At all concentrations, 0.01% DMSO is the final concentration in the well. The following day, the plates are aspirated, washed with 50 μl of cold PBS. The cells are lysed with 50 μl/well 4° C. Cell Lysis Buffer (Catalog #9803; Cell Signaling Technology, Danvers, Mass.) (20 mM Tris-HCL (pH 7.5), 150 mM NaCl, 1 mM […], 1 mM EGTA, 1% Triton, 2.5 mM sodium pyrophosphate, 1 mM B-glycerophosphate, 1 mM sodium vanadate, 1 ug/ml leupeptin). Lysates were clarified at 16,000×g for 10 minutes, and 2 μg of protein was subjected to SDS-PAGE analysis and followed by immunoblotting according to standard protocols. The antibodies used were ERα (Cell Signaling Technologies Catalog #8644), and Tubulin (Sigma Catalog #T9026; St. Louis, Mo.). Detection reagents were Clarity Western ECL substrate (Bio-Rad Catalog #170-5060; Hercules, Calif.).
Alternatively, MCF7 cells were grown in DMEM/F12 with 10% fetal bovine serum and seeded at 24,000 cells per well in 500 μl in 24-well clear tissue culture plates. The following day, the cells were treated with PROTACs in a 5-point concentration curve (100 nM, 33 nM, 11 nM, 3.7 nM, and 1.2 nM) in the presence of 0.01% DMSO. After 72 hours, the wells are aspirated and washed with 500 μl of PBS. The cells are lysed with 100 μl/well 4° C. Cell Lysis Buffer (Catalog #9803; Cell Signaling Technology, Danvers, M A) (20 mM Tris-HCL (pH 7.5), 150 mM NaCl, 1 mM Na2EDTA, 1 mM EGTA, 1% Triton, 2.5 mM sodium pyrophosphate, 1 mM B-glycerophosphate, 1 mM sodium vanadate, 1 ug/ml leupeptin). Lysates were clarified at 16,000×g for 10 minutes, and 2 μg of protein was subjected to SDS-PAGE analysis and followed by immunoblotting according to standard protocols. The antibodies used were ER(X (Cell Signaling Technologies Catalog #8644), and Tubulin (Sigma Catalog #T9026; St. Louis, Mo.). Detection reagents were Clarity Western ECL substrate (Bio-Rad Catalog #170-5060; Hercules, Calif.).

ERα [2] = biological target: T1, ERα; assay: ERE luciferase reporter gene assay in T47D-KBluc cells (target engagement); type: cell-based; design: T47D human breast cancer cells stably transfected with estrogen responsive element/promoter/luciferase reporter gene; host or cells: T47D-KBluc cells; details: 10% FBS, 24 hours, Table 2 VHL centric PROTACs, read-out: IC50
Summary of the method: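 T47D-KBluc breast cancer cells, which carry a stable ERE-luciferase reporter, were grown in RPMI with 10% FBS (about 10 pM estrogen) and exposed to PROTACs for 24 h. The 12-point, 3-fold series ran from 300 nM to 2 pM. Luciferase was read after lysis, and IC50 was fitted from duplicates.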

| Compound | DC50 (ERα [1]) [nM] | Dmax (ERα [1]) [%] | IC50 (ERα [2]) [nM] |
| --- | --- | --- | --- |
| Cc1ncsc1-c1ccc([C@H](C)NC(=O)[C@@H]2C[C@@H](O)CN2C(=O)[C@@H](NC(=O)Cc2ccc(-c3ccn(CCOc4ccc(Oc5c(-c6ccc(F)cc6)sc6cc(O)ccc56)cc4)n3)cc2)C(C)(C)C)cc1 [Compound 141, (2S,4R)-1-[(2S)-2-[2-(4-[1-[2-(4-[[2-(4-fluorophenyl)-6-hydroxy-1-benzothiophen-3-yl]oxy]phenoxy)ethyl]-1H-pyrazol-3-yl]phenyl)acetamido]-3,3-dimethylbutanoyl]-4-hydroxy-N-[(1S)-1-[4-(4-methyl-1,3-thiazol-5-yl)phenyl]ethyl]pyrrolidine-2-carboxamide] | 1 to 10 | > 75 | 1.5 |
| Cc1ncsc1-c1ccc([C@H](C)NC(=O)[C@@H]2C[C@@H](O)CN2C(=O)[C@@H](NC(=O)COCCOCCN2CCC(c3ccc(Oc4c(-c5ccc(F)cc5)sc5cc(O)ccc45)cc3)CC2)C(C)(C)C)cc1 [Compound 142, (2S,4R)-1-[(2S)-2-[2-(2-[2-[4-(4-[[2-(4-fluorophenyl)-6-hydroxy-1-benzothiophen-3-yl]oxy]phenyl)piperidin-1-yl]ethoxy]ethoxy)acetamido]-3,3-dimethylbutanoyl]-4-hydroxy-N-[(1S)-1-[4-(4-methyl-1,3-thiazol-5-yl)phenyl]ethyl]pyrrolidine-2-carboxamide] | < 1 | > 75 | 0.5 |
| C[C@H](NC(=O)[C@@H]1C[C@@H](O)CN1C(=O)[C@@H](NC(=O)COCCOCCN1CCC(c2ccc(Oc3c(-c4ccc(F)cc4)sc4cc(O)ccc34)cc2)CC1)C(C)(C)C)c1ccc(C#N)cc1 [Compound 147, (2S,4R)—N-[(1S)-1-(4-cyanophenyl)ethyl]-1-[(2S)-2-[2-(2-[2-[4-(4-[[2-(4-fluorophenyl)-6-hydroxy-1-benzothiophen-3-yl]oxy]phenyl)piperidin-1-yl]ethoxy]ethoxy)acetamido]-3,3-dimethylbutanoyl]-4-hydroxypyrrolidine-2-carboxamide] | 1 to 10 | > 75 | 1 |
| C[C@H](NC(=O)[C@@H]1C[C@@H](O)CN1C(=O)[C@@H](NC(=O)Cc1ccc(-c2ccn(CCOc3ccc(Oc4c(-c5ccc(F)cc5)sc5cc(O)ccc45)cc3)n2)cc1)C(C)(C)C)c1ccc(C#N)cc1 [Compound 149] | 1 to 10 | > 75 | 1.4 |
| C[C@H](NC(=O)[C@@H]1C[C@@H](O)CN1C(=O)[C@@H](NC(=O)Cc1ccc(-c2ccn(CCOc3ccc(Oc4c(-c5ccc(F)cc5)sc5cc(O)ccc45)cc3)n2)cc1)C(C)(C)C)c1ccc(Cl)cc1 [Compound 150, (2S,4R)-N-[(1S)-1-(4-chlorophenyl)ethyl]-1-[(2S)-2-[2-(4-[1-[2-[4-[[2(4-fluorophenyl)-6-hydroxy-1-benzothiophen-3-yl]oxy]phenoxy)ethyl]-1H-pyrazol-3-yl]phenyl)acetamido]-3,3-dimethylbutanoyl]-4-hydroxypyrrolidine-2-carboxamide] | 10 to 100 | > 75 | 17 |
| Cc1ncsc1-c1ccc(CNC(=O)[C@@H]2C[C@@H](O)CN2C(=O)[C@@H](NC(=O)COCCN2CCN(CCOc3ccc(Oc4c(-c5ccc(Cl)cc5)sc5cc(O)ccc45)cc3)CC2)C(C)(C)C)cc1 [Compound 151, (2S,4R)-1-[(2S)-2-[2-(2-[4-[2-(4-[[2-(4-chlorophenyl)-6-hydroxy-1-benzothiophen-3-yl]oxy]phenoxy)ethyl]piperazin-1-yl]ethoxy)acetamido]-3,3-dimethylbutanoyl]-4-hydroxy-N-[[4-(4-methyl-1,3-thiazol-5-yl)phenyl]methyl]pyrrolidine-2-carboxamide] | < 1 | > 75 | 0.4 |
| Cc1ncsc1-c1ccc([C@H](C)NC(=O)[C@@H]2C[C@@H](O)CN2C(=O)[C@@H](NC(=O)COCCN2CCN(CCOc3ccc(Oc4c(-c5ccc(Br)cc5)sc5cc(O)ccc45)cc3)CC2)C(C)(C)C)cc1 [Compound 153, (2S,4R)-1-[(2S)-2-[2-(2-[4-[2-(4-[[2-(4-bromophenyl)-6-hydroxy-1-benzothiophen-3-yl]oxy]phenoxy)ethyl]piperazin-1-yl]ethoxy)acetamido]-3,3-dimethylbutanoyl]-4-hydroxy-N-[(1S)-1-[4-(4-methyl-1,3-thiazol-5-yl)phenyl]ethyl]pyrrolidine-2-carboxamide] | 1 to 10 | > 75 | 3.2 |
| Cc1ncsc1-c1ccc(CNC(=O)[C@@H]2C[C@@H](O)CN2C(=O)[C@@H](NC(=O)CN2CCN(CCOCCOc3ccc(Oc4c(-c5ccc(Br)cc5)sc5cc(O)ccc45)cc3)CC2)C(C)(C)C)cc1 [Compound 158, (2S,4R)-1-[(2S)-2-[2-(4-[2-[2-(4-[[2-(4-bromophenyl)-6-hydroxy-1-benzothiophen-3-yl]oxy]phenoxy)ethoxy]ethyl]piperazin-1-yl)acetamido]-3,3-dimethylbutanoyl]-4-hydroxy-N-[[4-(4-methyl-1,3-thiazol-5-yl)phenyl]methyl]pyrrolidine-2-carboxamide] | 10 to 100 | > 75 | 13.7 |
| Cc1ncsc1-c1ccc(CNC(=O)[C@@H]2C[C@@H](O)CN2C(=O)[C@@H](NC(=O)CN2CCC(N3CC(OCCOc4ccc(Oc5c(-c6ccc(Br)cc6)sc6cc(O)ccc56)cc4)C3)CC2)C(C)(C)C)cc1 [Compound 160, (2S,4R)-1-[(2S)-2-[2-(4-[3-[2-(4-[[2-(4-bromophenyl)-6-hydroxy-1-benzothiophen-3-yl]oxy]phenoxy)ethoxy]azetidin-1-yl]piperidin-1-yl)acetamido]-3,3-dimethylbutanoyl]-4-hydroxy-N-[[4-(4-methyl-1,3-thiazol-5-yl)phenyl]methyl]pyrrolidine-2-carboxamide] | 1 to 10 | > 75 | 6.3 |
